Patent publication US5919653A, “Nucleic acids encoding a human glycine transporter” (Allelix Neuroscience Inc., priority 1996, dated 1999)

Biological target: human GlyT-2 glycine transporter (clone pHGT2, SEQ ID 20 nucleic acid / SEQ ID 21 protein) (Homo sapiens, UniProt Q9Y345, I279N/I611V)
Assay: cell-based
Protocol: Transient GlyT-transfected cells or control cells grown in accordance with Example 5 were washed three times with HEPES buffered saline (HBS). The control cells were treated precisely as the GlyT-transfected cells except that the transfection procedure omitted any cDNA. […] The cells were then incubated another 20 minutes at 37° C., after which the cells were washed three times with ice-cold HBS. Scintillant was added to the cells, the cells were shaken for 30 minutes, and the radioactivity in the cells was counted using a scintillation counter. Data were compared between the cells contacted or not contacted by a prospective agent, and, where relevant, between cells having GlyT-1 activity versus cells having GlyT-2 activity, depending on the assay being conducted.
Data points represent means±SEM from an experiment performed in quadruplicate.

human GlyT-2 glycine transporter (clone pHGT2, SEQ ID 20 nucleic acid / SEQ ID 21 protein), sequence (Q9Y345 whole entry I279N/I611V): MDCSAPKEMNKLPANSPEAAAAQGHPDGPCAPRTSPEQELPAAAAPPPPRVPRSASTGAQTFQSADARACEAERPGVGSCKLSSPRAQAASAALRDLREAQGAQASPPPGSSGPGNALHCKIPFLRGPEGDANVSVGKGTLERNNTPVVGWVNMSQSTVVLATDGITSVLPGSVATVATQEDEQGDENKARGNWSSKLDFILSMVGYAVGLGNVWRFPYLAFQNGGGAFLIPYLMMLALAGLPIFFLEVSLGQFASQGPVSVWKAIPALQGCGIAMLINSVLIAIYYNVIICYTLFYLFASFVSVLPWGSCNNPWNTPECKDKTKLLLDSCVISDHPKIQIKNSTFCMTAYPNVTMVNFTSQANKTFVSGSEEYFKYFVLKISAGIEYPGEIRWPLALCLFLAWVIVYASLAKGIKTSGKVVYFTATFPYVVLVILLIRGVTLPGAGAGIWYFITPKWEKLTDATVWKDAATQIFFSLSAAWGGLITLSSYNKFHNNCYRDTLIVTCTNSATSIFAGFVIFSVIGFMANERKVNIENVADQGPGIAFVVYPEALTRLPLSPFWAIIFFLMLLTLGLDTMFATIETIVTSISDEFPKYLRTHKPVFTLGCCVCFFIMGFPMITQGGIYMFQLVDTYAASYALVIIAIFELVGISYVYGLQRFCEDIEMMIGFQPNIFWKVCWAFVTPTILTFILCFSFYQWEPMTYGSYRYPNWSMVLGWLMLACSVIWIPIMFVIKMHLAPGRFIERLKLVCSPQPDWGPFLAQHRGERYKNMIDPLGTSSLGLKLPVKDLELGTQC

IC50: 40 µM
SMILES: NCC(=O)O [glycine]
